{"source": "patent US20020169128A1", "about": "“Erythropoietin ameliorates chemotherapy-induced toxicity in vivo” (priority 2001, published 2002)", "key": {"C57B16 female mice": {"system": "C57B16 female mice", "experiment": "Pulmonary function (Penh) by whole body plethysmography after graded methacholine challenge in mice treated with EPO and/or bleomycin", "type": "in vivo", "settings": "treated twice a week for two weeks, i.p., FIG. 1", "experimental": "C57B16 female mice between 7 and 12 weeks old weighing approximately 20 grams were treated with varying doses of EPO alone and in combination with bleomycin. Animals were treated twice a week with placebo, EPO alone (5-40 μg/mouse, i.p.), bleomycin alone (0.25-0.75 μg/mouse, i.p.), or EPO and bleomycin in combination. […] At these time points, pulmonary function was measured using a full body plethysmograph (Buxco, Niskayuna, N.Y.). This is a noninvasive method utilizing a clear plastic animal chamber fitted with two pneumotachs and a transducer which interface with a computer. Pulmonary resistance and dynamic compliance is evaluated by an analyzer which measures flow and pressure readings at equivalent lung volumes during inspiration and expiration (“Iso-Volumetric Method”). Artifacts from animal movement or atypical breaths (e.g. from “sniffing”) are ignored by computer analysis using parameters that can be adjusted as appropriate for the tidal volume and inspiratory time of the individual animal. The method of whole body plethysmography has been studied and found to be a valid index of pulmonary function in the mouse (Hamelmann et al., Am. J. Respir. Crit. Care Med. 156)3 Pt1) 776-75 (1997). […] A similar pattern of the Penh values was observed when pulmonary functions were performed at four weeks of treatment (see FIG. 2)."}, "[1]": {"settings": "doses of up to 1,500 Units/kg for three to four weeks; cited from earlier work"}}}
{"substance": "bleomycin [reference compound]", "values": [{"measurement": "worsening in Penh values compared with control animals", "setting": "C57B16 female mice; graded (0 to 48 mg/ml) methacholine challenge", "value": 2.6, "unit": "fold"}]}
{"substance": "erythropoietin [EPO]", "values": [{"measurement": "pulmonary function (Penh), EPO given in the absence of bleomycin", "setting": "C57B16 female mice; graded methacholine challenge", "value": "slight enhancement of pulmonary function"}, {"measurement": "toxic effects due to EPO itself", "setting": "[1]", "value": "without toxic effects"}]}
